“Also recorded” adds a separate entry of the source. Where a SMILES comes first, the peptide text is derived from it. The star is where a group is joined. Cbz = O=C(OCc1ccccc1)*; CH2F = FC*
Columns and labels:
Format in all cases: cell-based, human
[1] = system: FoxM1; test: MELK transcription after FoxM1 inhibition (qRT-PCR); conditions: cells treated for 16 h; quantitative PCR
Experimental: Total RNA was extracted from cultured cells with RNeasy Mini kit (Qiagen), with the use of QIAshredder spin column for homogenization and an on-column DNase digestion. Two micrograms of the total RNA was reversely transcribed using a High Capacity RNA to-cDNA Kit (Applied Biosystems). cDNAs were analyzed quantitatively using Power SYBR Green PCR Master Mix (Applied Biosystems) on an ABI7300 Real-time PCR system. Cycling conditions were 95° C. for 15 min, 40 cycles of 15 s at 94° C., 30 s at 55° C. and 30 s at 72° C. Ct values were generated using the default analysis settings. ΔCT was defined as Ctgene of interest-Ctβactin. ΔΔCT was defined as ΔCttreated sample-Ctcontrol sample. Relative quantification (RQ) was calculated as 2^−ΔΔCT. Statistical analysis was performed by Student's test.

[2] = system: FoxM1; test: MELK abundance after FoxM1 inhibition (immunoblotting)
Experimental: Cells were lysed with RIPA buffer (25 mM Tris, pH 7.4, 150 mM NaCl, 1% Nonidet P-40, 0.5% sodium deoxycholate, and 0.1% sodium dodecyl sulfate) supplemented with protease inhibitors cocktail (Roche) and phosphatase inhibitors cocktail (Thermo Scientific). Cleared lysates were analyzed for protein concentration using BCA kit (Thermo Scientific). Equal amount of protein (10-20 μg) was resolved on 8% or 10% SDS-PAGE, and was subsequently transferred onto a nitrocellulose or polyvinylidene difluoride membrane (Amersham). The membrane was blocked with 5% non-fat milk and was then incubated with primary antibodies overnight at 4° C. After washing, the membrane was incubated with fluorophore-conjugated secondary antibodies for 1 h at room temperature. The membrane was then washed and scanned with an Odyssey Infrared scanner (Li-Cor Biosciences). Primary antibodies used in this study include anti MELK (Epitomics, #2916), anti-α-tubulin (Abcam), anti-cyclin B1 (Millipore), anti-Vinculin (Sigma), anti-FoxM1 (Santa Cruz), anti-β-tubulin, anti-phopho-Akt (S473), anti-phospho Akt (T308), anti-total Akt, anti-Flag, anti-cleaved PARP (Asp214), anti-cleaved Caspase 3, anti-AURKA, anti-AURKB, anti-p27 (all from Cell Signaling Technology). Secondary antibodies used were IRDye700-conjugated anti-rabbit IgG and IRDye800-conjugated anti-mouse IgG (Rockland).

[3] = system: BBC cells including BT549, MDA-MB-468, MDA-MB-231, and MDA-MB-436; test: Cell proliferation assay (crystal violet) upon doxycycline-induced shRNA; conditions: knockdown induced with doxycycline 100 ng/ml; crystal violet staining six days after initial treatment
Experimental: (§1) Typically, breast cancer cells were seeded in 12-well plates (1-2×10^4) in 1 ml medium. On the next day, wells were added with 110 μl medium without or with 1 μg/ml doxycycline (to reach a final concentration of 100 ng/ml), which was repeated every two days. Six days after the initial treatment, cells were fixed with formaldehyde, and stained with crystal violet (0.05%, weight/volume), a chromatin-binding cytochemical stain. The plates were washed extensively, and imaged with a flatbed scanner. For quantification of the staining, 1 ml 10% acetic acid was added to each well to extract the dye. The absorbance was measured at 590 nm with 750 nm as a reference.

[4] = system: luminal cell lines, MCF7 and T47D; test: as above; conditions: knockdown induced with doxycycline 100 ng/ml
Experimental: as §1

[5] = system: caspases; test: MELK knockdown-induced cell death with pan-caspase inhibitor; conditions: MDA-MB-468 cells with shMELK, doxycycline 4 days, last two days with 40 μM zVad-fmk

## C=C(NC(=O)C(=C)NC(=O)c1csc(C2=N[C@@H]3c4csc(n4)[C@H]4NC(=O)c5csc(n5)[C@H]([C@](C)(O)[C@@H](C)O)NC(=O)[C@H]5CSC(=N5)/C(=C/C)NC(=O)[C@H]([C@@H](C)O)NC(=O)c5csc(n5)[C@]3(CC2)NC(=O)[C@H](C)NC(=O)C(=C)NC(=O)[C@H](C)NC(=O)[C@H]([C@@H](C)CC)N[C@@H]2C=Cc3c([C@H](C)O)cc(nc3[C@H]2O)C(=O)O[C@@H]4C)n1)C(N)=O [thiostrepton]
[1]
  transcription of MELK: decreases the transcription of MELK
[2]; MDA-MB-231 cells, 10 μM thiostrepton vs vehicle (0.1% DMSO)
  abundance/expression of MELK protein: reduced the abundance of MELK; also recorded: downregulates the expression of MELK

## ggaccacuuucccuacuuu [siRNA (SEQ ID NO: 31)]
[2]; siRNA transfection, lysates three days after transfection
  abundance/expression of MELK protein: reduced the abundance of MELK
[2]; siRNA transfection, lysates three days after transfection, listed as siRNA targeting FoxM1
  abundance/expression of MELK protein: suppresses MELK expression

## GACTAAAGCTTCACTATAATG (expressed or natural sequence) [MELK sh-1805, ID; NO: 2]
[3]
  growth of BBC cells upon induction of the shRNA: strongly impaired the growth
[4]
  growth of luminal cell lines upon induction of the shRNA: protected from the induction of MELK silencing

## GCCTGAAAGAAACTCCAATTA (expressed or natural sequence; the letters are possibly those of the target site) [shMELK2, ID; NO: 4]
[3]
  growth of BBC cells upon induction of the shRNA: strongly impaired the growth
[4]
  growth of luminal cell lines upon induction of the shRNA: protected from the induction of MELK silencing

## COC(=O)C[C@H](NC(=O)[C@H](C)NC(=O)[C@@H](NC(=O)OCc1ccccc1)C(C)C)C(=O)CF [zVad, zVad-fmk] (Cbz-Val-Ala-Asp(OMe)-CH2F)
[5]
  MELK knockdown-induced cell death: significantly reduced MELK knockdown-induced cell death

## GAGAGCTGTTTGACTATATAA (expressed or natural sequence) [MELK sh-413, ID; NO: 1]
[3]
  growth of BBC cells upon induction of the shRNA: strongly impaired the growth
[4]
  growth of luminal cell lines upon induction of the shRNA: protected from the induction of MELK silencing

## GGTGTGATACAGCCTACATAA (expressed or natural sequence; the letters are possibly those of the target site) [shMELK1, ID; NO: 3]
[3]
  growth of BBC cells upon induction of the shRNA: strongly impaired the growth
[4]
  growth of luminal cell lines upon induction of the shRNA: protected from the induction of MELK silencing
